Holding throughout (test): inhibition of tumour cell growth, NCI panel, 48 h
Experiment [1] relates to BT-549 breast.
The test system of experiment [2] is HCT-15 colon.
In experiment [3] the test system is HT29 colon.
For experiment [4], the system named is MCF7 breast.
Experiment [5] relates to OVCAR-4 ovarian.
Experiment [6] concerns PC-3 prostate.
Experiment [7] has as its system MOLT-4 leukemia.
Experiment [8] relates to RPMI-8226 leukemia.
For experiment [9], the system named is RXF 393 renal.
Experiment [10] deals with HCC-2998 colon.

Structures are written as SMILES.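 The compound was tested at five concentrations on cells cultured in 96-well plates, with a 48-hour exposure period. At the GI50, growth is halved. Definition used: TGI = concentration required for complete inhibition of growth.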 Some results are limits rather than exact numbers.

With `O=NNc1ccc(S(=O)(=O)c2ccc3ccccc3c2)cn1`, the TGI in experiment [1], in [2], in experiment [3], in [4], in [5] and in experiment [6] was above 100 µM throughout.
For `Clc1ccc(CN2CCCN(Cc3ccc(Cl)cc3)C2c2cc3ccccc3c3ccccc23)cc1`, the TGI in experiment [1], in experiment [2], in [3], in experiment [4], in experiment [7] and in experiment [5] was above 100 µM in each case. In addition, the TGI in [6], in [8] and in experiment [9] was above 100 µM throughout.
Take `Nc1ccccc1C#Cc1ccccc1C#Cc1cccs1`: the GI50 was 15.9 µM in experiment [1]; 13.1 µM in [2]; 19.4 µM in experiment [3]; 32.4 µM in [7]; 31 µM in [5]; 13.8 µM in [6]. Also, the GI50 in experiment [8] was 14.1 µM; in experiment [9] it was 18.2 µM. Besides, the TGI was 32.1 µM in experiment [1]; 33.5 µM in experiment [2]; 49 µM in experiment [3]; above 100 µM in experiment [7]; above 100 µM in experiment [5]; 33 µM in experiment [6]. Moreover, the TGI was 40.6 µM in experiment [8] and above 100 µM in experiment [9].
Turning to `COc1cc(/C=C2\SC(N3CCCCC3)=NC2=O)ccc1OCCCCCCOc1ccc(/C=C2\SC(N3CCCCC3)=NC2=O)cc1OC`, the GI50 in [1] is 4.29 µM; in [10] it was 13.6 µM; in [2] it was 15.2 µM; in experiment [3] it was 8.38 µM; in [4] it was 15.1 µM; in experiment [7] it was 17.4 µM. In addition, the GI50 was 12.4 µM in experiment [6] and 4.94 µM in experiment [9]. Moreover, the TGI in experiment [1] is 22.8 µM; in [10], 27 µM; in [2], 53.1 µM; in experiment [3], 30.4 µM; in experiment [4] it was 44.9 µM; in experiment [7], above 100 µM. The TGI in [6] was 56.7 µM; in experiment [9], 16.9 µM.
Consider `CCOC(=O)c1c(NC(=O)c2ccc(Cl)cc2)sc2c(CN(C)C)c(O)ccc12`, for which the GI50 in experiment [1] is 13.4 µM; in [10], 1.83 µM; in experiment [2] it was 2.16 µM; in experiment [3], 2.48 µM; in experiment [4] it was 7.57 µM; in experiment [7] it was 4.11 µM. The GI50 in [5] was 9.85 µM; in [6], 8.44 µM; in experiment [9], 2.98 µM. In addition, the TGI in experiment [1] was above 100 µM; in experiment [10], 3.84 µM; in experiment [2], 5.76 µM; in [3], 7.13 µM; in [4], above 100 µM; in experiment [7], above 100 µM. Besides, the results for the TGI in experiment [5], in [6] and in experiment [9] were 71.4 µM, 37.3 µM and 13.4 µM, respectively.
As to `C=C1C[C@@H]2O[C@H]3[C@H]4[C@@H](CC[C@@](C)(OC(=O)CCC)[C@H]42)[C@@H](C)C(=O)O[C@@]3(C)CC[C@H]1OO`, the GI50 in experiment [1] is 36 µM; in [10], 15.9 µM; in experiment [2], 16.2 µM; in [3], 16.9 µM; in experiment [4], 20.5 µM; in experiment [7], 11 µM. Also, the results for the GI50 in experiment [5], in experiment [8] and in [9] were 19.5 µM, 14 µM and 27.6 µM, respectively. Also, the TGI in experiment [1] was above 100 µM; in experiment [10], 29.4 µM; in [2] it was 29.7 µM; in experiment [3], 33.6 µM; in experiment [4] it was 38.8 µM; in experiment [7], 23 µM. Further, the TGI turned out to be 40.2 µM in experiment [5], 28.8 µM in experiment [8] and 88.6 µM in experiment [9].
Consider `CN(C)c1ccc(C(O)C2=CC(=O)c3ccccc3C2=O)cc1` (configuration not stated), for which the GI50 in experiment [1] was 2.58 µM; in experiment [10] it was 17 µM; in experiment [2] it was 4.3 µM; in experiment [4], 4.7 µM; in experiment [5] it was 4.51 µM; in [8], 3.69 µM. Besides, in [9], the GI50 is 4.29 µM. Also, the TGI in experiment [1] is 6.25 µM; in experiment [10], 38.7 µM; in experiment [2] it was above 100 µM; in [4] it was above 100 µM; in experiment [5], above 100 µM; in experiment [8] it was 66.8 µM. The molecule also displayed a TGI in experiment [9] of 56.6 µM.
As to `O=c1cccc(Cl)[nH]1`, the TGI in experiment [1], in [2], in experiment [3], in experiment [4], in experiment [7] and in experiment [5] was above 100 µM in each case. The TGI in experiment [6], in experiment [8] and in experiment [9] was above 100 µM throughout.
Take `CCOC1Oc2ccc(C)cc2C(=O)/C1=C\Nc1ccc(S(N)(=O)=O)cc1` (configuration not stated): the GI50 in experiment [1] was 10.1 µM; in [2], 12.5 µM; in experiment [3] it was 15.6 µM; in [4], 15.9 µM; in experiment [7] it was 13.9 µM; in experiment [5] it was 15.2 µM. The GI50 in [6] was 16.6 µM; in [8] it was 6.21 µM; in [9], 8.92 µM. Moreover, the TGI in [1] is 35.2 µM; in experiment [2], above 50 µM; in experiment [3], above 50 µM; in experiment [4], above 50 µM; in experiment [7], above 50 µM; in [5] it was above 50 µM. The TGI in [6] was above 50 µM; in experiment [8] it was 25.2 µM; in [9], 21.3 µM.
Take `COc1cccc(-c2nc3sccn3c2-c2ccnc(NCCCNS(=O)(=O)c3ccccc3)c2)c1`: the GI50 was 4.38 µM in [10]; 3.02 µM in experiment [2]; 3.23 µM in experiment [3]; 3.83 µM in experiment [4]; 2.25 µM in experiment [7]; 2.87 µM in [5]. Besides, the figures for the GI50 in experiment [6], in experiment [8] and in experiment [9] were 1.97 µM, 1.61 µM and 5.79 µM, respectively. The TGI is above 100 µM in [10]; above 100 µM in [2]; above 100 µM in [3]; above 100 µM in [4]; 7.04 µM in [7]; above 100 µM in experiment [5]. The TGI is 6.3 µM in experiment [6], 4.26 µM in experiment [8] and above 100 µM in experiment [9].

The values are drawn from PubChem BioAssay (NCI).
